From patent publication US7786129B2, “Piperazine derivatives of dialkyl oxindoles” (Egis Gyogyszergyar Nyrt, priority 2004, dated 2010)
Where a name gives a salt, the structure may show the parent alone.

Key:
Male Wistar rats = assay: Vogel's drinking conflict test; assay type: in vivo; settings: ip, 0.5 h, rat, i.p. 30 min prior to test, increase in tolerated shocks, read-out: MED
Procedure: The anxiolytic effect of the compounds according to the invention was investigated on rats according to Vogel's drinking conflict test and elevated plus-maze test (S. Pelow, P. Chopin, S. E. File, J. Briley: Neurosci. Methods 14, p. 149 (1985)).
Male Wistar rats weighing 160-180 g were used for the experiment. The animals were deprived of drinking water for 48 hours and fasted for 24 hours prior to test. The test compounds or vehicle were administered intraperitoneally, 30 min prior to test. […] Following every 20 licks electric shocks (0.7 mA) were applied through the drinking spout during the 5 min test period. The number of punished licks were recorded. The effect of the test compounds was expressed as % increase in numbers of tolerated shocks. Minimal effective doses (MED) were determined for each compound.

α1 receptor = α1 receptor binding experiment; settings: rat isolated frontal cortex preparation, ligand 3H-prazosine 0.3 nM
Procedure: (§1) Receptor bindings—with the exception of the 5-HT2C receptor binding—were determined by using cerebral region preparations of male Wistar rats weighing 120-200 g. For the preparation of 5-HT1A receptor binding frontal cortex preparations were used. The al receptor binding studies were performed from isolated frontal cortex pre-parations. For the 5-HT2C receptor binding experiments choroid plexus of pigs was used. The protein contents of membrane preparations were determined by the method of Lowry (1951).
In the course of 5-HT2C and α1 receptor binding experiments the ligands were ^3H-mesulergin (1.0 nM) and ^3H-prazosine (0.3 nM), respectively. The non-specifically binding ligands were mianserine (1 μM and prazosine (1 μM), respectively.
(§2) The IC50 value is the value of concentration where the difference between total and non-specific binding is 50% in the presence of a determined concentration of a specific ligand.

5-HT1A receptor = molecular target: T1, 5-HT1A receptor (Rattus norvegicus, UniProt P19327); assay: 5-HT1A receptor binding; settings: rat frontal cortex preparation, ligand tritiated 8-OH-DPAT
T1 construct: from tissue; host or cells: rat frontal cortex membrane preparation
T1 sequence (P19327 1-422): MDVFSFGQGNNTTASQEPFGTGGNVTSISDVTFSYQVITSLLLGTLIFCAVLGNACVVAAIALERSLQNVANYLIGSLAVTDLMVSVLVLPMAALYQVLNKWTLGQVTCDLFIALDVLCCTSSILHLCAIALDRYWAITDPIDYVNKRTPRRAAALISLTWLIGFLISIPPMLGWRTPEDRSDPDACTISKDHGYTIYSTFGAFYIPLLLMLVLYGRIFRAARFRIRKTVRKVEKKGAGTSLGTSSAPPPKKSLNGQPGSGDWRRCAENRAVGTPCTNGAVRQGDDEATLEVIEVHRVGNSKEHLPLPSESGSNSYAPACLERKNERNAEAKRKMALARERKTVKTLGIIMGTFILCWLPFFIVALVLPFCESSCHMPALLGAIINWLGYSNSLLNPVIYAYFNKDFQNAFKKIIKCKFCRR
Procedure: as §1
5-HT1A receptor binding was measured according to the method of Peroutka (Peroutka, S. J.: J. Neurochem. 47, p. 529 (1986)). The ligand was tritiated 8-hydroxy-N,N-dipropyl-2-aminotetraline (8-OH-DPAT). For the determination of non-specific binding 10 μM serotonin was applied. Incubation […] volume was 250 μl. Incubation was carried out at a temperature of 25 C for 30 minutes. The reaction was terminated by the addition of 9 ml of ice-cold 50 mM TRIS-HCl (pH 7.7) buffer and quick vacuum filtration using Whatman GFIB fibreglass filtering paper. Radioactivity of the filter boards was measured by liquid scintillation spectrometry.
as §2

melting point | Structure (SMILES) | further results
 | CCC1(CCCCN2CCN(c3ccccc3OC)CC2)C(=O)Nc2ccccc21 (stereo not shown) [Example 69, 3-Ethyl-3-{4-[4-(2-methoxyphenyl)-piperazin-1-yl]-butyl}-1,3-dihydro-2H-indol-2-one monooxalate] | minimal effective dose (Male Wistar rats): 10 mg/kg
152 to 154 °C | CC(C)CC1(CCCCN2CCN(c3cccc4c3OCCO4)CC2)C(=O)Nc2ccccc21 (stereo not shown) [Example 64, 3-{4-[4-(2,3-Dihydrobenzo[1,4]dioxin-5-yl)-piperazin-1-yl]-butyl}-3-isobutyl-1,3-dihydro-2H-indol-2-one] | IC50 (α1 receptor): < 50 nM
 | CCC1(CCCCN2CCN(c3cccc(Cl)c3)CC2)C(=O)Nc2cc(F)c(Cl)cc21 (stereo not shown) [Example 89, 5-Chloro-3-{4-[4-(3-chlorophenyl)-piperazin-1-yl]-butyl}-3-ethyl-6-fluoro-1,3-dihydro-2H-indol-2-one monohydrochloride] | IC50 (5-HT1A receptor): > 300 nM
 | CC(C)CC1(CCCCN2CCN(c3cccc(Cl)c3)CC2)C(=O)Nc2ccccc21 (stereo not shown) [Example 75, 3-{4-[4-(3-Chlorophenyl)-piperazin-1-yl]-butyl}-3-isobutyl-1,3-dihydro-2H-indol-2-one monohydrochloride] | IC50 (5-HT1A receptor): > 200 nM; minimal effective dose (Male Wistar rats): 10 mg/kg
 | CCC1(CCCCN2CCN(c3cccc(Cl)c3)CC2)C(=O)Nc2ccccc21 (stereo not shown) [Example 60, 3-{4-[4-(3-Chlorophenyl)-piperazin-1-yl]-butyl}-3-ethyl-1,3-dihydro-2H-indol-2-one-H2O—HCl-isopropanol (1:1:1:1)] | IC50 (α1 receptor): < 100 nM
182 to 183 °C | CCC1(CCCCN2CCN(c3cccc(Cl)c3)CC2)C(=O)Nc2c(Cl)cc(Cl)cc21 (stereo not shown) [Example 79, 5,7-Dichloro-3-[4-[4-(3-chlorophenyl)-piperazin-1-yl]-butyl]-3-ethyl-1,3-dihydro-2H-indol-2-one] | IC50 (5-HT1A receptor): > 400 nM
 | CCC1(CCCCN2CCN(c3ccccn3)CC2)C(=O)Nc2ccccc21 (stereo not shown) [Example 71, 3-Ethyl-3-[4-(4-pyridin-2-yl-piperazin-1-yl)-butyl]-1,3-dihydro-2H-indol-2-one] | minimal effective dose (Male Wistar rats): 20 mg/kg
145 to 147 °C | CCC1(CCCCN2CCN(c3ccc(Cl)cc3)CC2)C(=O)Nc2cc(F)ccc21 (stereo not shown) [Example 86, 3-{4-[4-(4-Chlorophenyl)-piperazin-1-yl]-butyl}-3-ethyl-6-fluoro-1,3-dihydro-2H-indol-2-one] | IC50 (5-HT1A receptor): > 300 nM
175 to 177 °C | CCC1(CCCCN2CCN(c3ccc(Cl)cc3)CC2)C(=O)Nc2ccc(C)cc21 (stereo not shown) [Example 73, 3-{4-[4-(4-Chlorophenyl)-piperazin-1-yl]-butyl}-3-ethyl-5-methyl-1,3-dihydro-2H-indol-2-one] | 
169 to 170 °C | CCC1(CCCCN2CCN(c3cccc4c3OCCO4)CC2)C(=O)Nc2ccccc21 (stereo not shown) [Example 63, 3-{4-[4-(2,3-Dihydrobenzo[1,4]dioxin-5-yl)-piperazin-1-yl]-butyl}-3-ethyl-1,3-dihydro-2H-indol-2-one] | IC50 (α1 receptor): < 50 nM
168 to 170 °C | CCC1(CCCCN2CCN(c3ccccn3)CC2)C(=O)Nc2ccc(C)cc21 (stereo not shown) [Example 80, 3-Ethyl-5-methyl-3-[4-(4-pyridin-2-yl-piperazin-1-yl)-butyl]-1,3-dihydro-2H-indol-2-one] | 
121 to 124 °C | CCC1(CCCCN2CCN(c3cccc(Cl)c3)CC2)C(=O)Nc2ccc(F)cc21 (stereo not shown) (as salt: hydrochloride) [Example 85, 3-{4-[4-(3-Chlorophenyl)-piperazin-1-yl]-butyl}-3-ethyl-5-fluoro-1,3-dihydro-2H-indol-2-one mono-hydrochloride] | 
152 to 155 °C | CCC1(CCCCN2CCN(c3ccc(Cl)c(Cl)c3)CC2)C(=O)Nc2ccc(F)cc21 (stereo not shown) [Example 115, 3-{4-[4-(3,4-dichlorophenyl)-piperazin-1-yl]-butyl}-3-ethyl-5-fluoro-1,3-dihydro-2H-indol-2-one] | 
125 to 126 °C | CCC1(CCCCN2CCN(c3ccc(F)cc3Cl)CC2)C(=O)Nc2ccccc21 (stereo not shown) [Example 126, 3-{4-[4-(2-chloro-4-fluorophenyl)-piperazin-1-yl]-butyl}-3-ethyl-1,3-dihydro-2H-indol-2-one] | 
237 to 239 °C | CCC1(CCCCN2CCN(c3cccc(Cl)c3)CC2)C(=O)Nc2cc(F)c(Cl)cc21 (stereo not shown) (as salt: hydrochloride) [Example 89, 5-Chloro-3-{4-[4-(3-chlorophenyl)-piperazin-1-yl]-butyl}-3-ethyl-6-fluoro-1,3-dihydro-2H-indol-2-one monohydrochloride] | 
 | CCC1(CCCCN2CCN(c3ccc(Cl)c(C(F)(F)F)c3)CC2)C(=O)Nc2ccccc21 (stereo not shown) [Example 96, 3-{4-[4-(4-Chloro-3-trifluoromethyl-phenyl)-piperazin-1-yl]-butyl}-3-ethyl-1,3-dihydro-2H-indol-2-one monohydrochloride] | IC50 (5-HT1A receptor): > 400 nM
154 to 156 °C | CCC1(CCCCN2CCN(c3ccccn3)CC2)C(=O)Nc2ccc(Cl)cc21 (stereo not shown) [Example 66, 5-Chloro-3-ethyl-3-[4-(4-pyridin-2-yl-piperazin-1-yl)-butyl]-1,3-dihydro-2H-indol-2-one] | 
119 to 120 °C | CCC1(CCCN2CCN(c3cccc(Cl)c3)CC2)C(=O)Nc2ccccc21 (stereo not shown) [Example 108, 3-{3-[4-(3-Chlorophenyl)-piperazin-1-yl]-propyl}-3-ethyl-1,3-dihydro-2H-indol-2-one] | 
114 to 115 °C | CCC1(CCCCN2CCN(c3ccccn3)CC2)C(=O)Nc2ccc(Br)cc21 (stereo not shown) [Example 59, 5-Bromo-3-ethyl-3-[4-(4-pyridin-2-yl-piperazin-1-yl)-butyl]-1,3-dihydro-2H-indol-2-one] | IC50 (α1 receptor): < 100 nM
146 to 147 °C | CCC1(CCCCN2CCN(c3cccc4c3OCCO4)CC2)C(=O)Nc2cc(F)ccc21 (stereo not shown) [Example 83, 3-{4-[4-(2,3-Dihydrobenzo[1,4]dioxin-5-yl)-piperazin-1-yl]-butyl}-3-ethyl-6-fluoro-1,3-dihydro-2H-indol-2-one] | 
158 to 159 °C | CC(C)CC1(CCCCN2CCN(c3ccccn3)CC2)C(=O)Nc2ccccc21 (stereo not shown) [Example 62, 3-Isobutyl-3-[4-(4-pyridin-2-yl-piperazin-1-yl)-butyl]-1,3-dihydro-2H-indol-2-one] | IC50 (α1 receptor): < 100 nM
